Laboratory results taken from US6492397B1, “N-arylheteroarylalkyl imidazol-2-one compounds for treatment of arteriosclerosis” (Pharmacia Corporation, priority 1991, dated 2002).
pIC50: −log10 of the molar value. Where two headings read alike, the source gives them in different places.

Assays:
[1] = system: pressor response to AII; assay: Assay C: In Vivo Intragastric Pressor Assay Response for AII Antagonists; design: species or system rat; conditions: for Assay C Duration: Dose: 3 mg/kg (i.g.), Sprague-Dawley rats, AII challenges up to 180 minutes after gavage; for inhibition in vivo at 3 mg/kg: Rattus norvegicus, po
Experimental: Assay C: In Vivo Intragastric Pressor Assay Response for AII Antagonists
Male Sprague-Dawley rats weighing 225-300 grams were anesthetized with methohexital (30 mg/kg, i.p.) and catheters were implanted into the femoral artery and vein. The catheters were tunneled subcutaneously to exit dorsally, posterior to the head and between the scapulae. The catheters were filled with heparin (1000 units/ml of saline). The rats were returned to their cage and allowed regular rat chow and water ad libitum. After full recovery from surgery (3-4 days), rats were placed in Lucite holders and the arterial line was connected to a pressure transducer. Arterial pressure was recorded on a Gould polygraph (mmHg). Angiotensin II was administered as a 30 ng/kg bolus via the venous catheter delivered in a 50 μl volume with a 0.2 ml saline flush. The pressor response in mm Hg was measured by the difference from pre-injection arterial pressure to the maximum pressure achieved. The AII injection was repeated every 10 minutes until three consecutive injections yielded responses within 4 mmHg of each other. These three responses were then averaged and represented the control response to AII. The test compound was suspended in 0.5% methylcellulose in water and was administered by gavage. The volume administered was 2 ml/kg body weight. The standard dose was 3 mg/kg. Angiotensin II bolus injections were given at 30, 45, 60, 75, 120, 150, and 180 minutes after gavage. The pressor response to AII was measured at each time point. The rats were then returned to their cage for future testing. A minimum of 3 days was allowed between tests. Percent inhibition was calculated for each time point following gavage by the following formula: [(Control Response−Response at time point)/Control Response]×100.

[2] = system: rabbit aortic rings; assay: Assay B: In Vitro Vascular Smooth Muscle Response for AII (antagonist activity in rabbit aortic rings); assay type: cell-based; conditions: Oryctolagus cuniculus, test antagonist at 10^-5 M, AII contraction, read-out: Assay B pA2 (converted)
Experimental: Assay B: In Vitro Vascular Smooth Muscle-Response for AII
The compounds of the invention were tested for antagonist activity in rabbit aortic rings. Male New Zealand white rabbits (2-2.5 kg) were sacrificed using an overdose of pentobarbital and exsanguinated via the carotid arteries. The thoracic aorta was removed, cleaned of adherent fat and connective tissue and then cut into 3-mm ring segments. The endothelium was removed from the rings by gently sliding a rolled-up piece of filter paper into the vessel lumen. The rings were then mounted in a water-jacketed tissue bath, maintained at 37° C., between moveable and fixed ends of a stainless steel wire with the moveable end attached to an FT03 Grass transducer coupled to a Model 7D Grass Polygraph for recording isometric force responses. The bath was filled with 20 ml of oxygenated (95% oxygen/5% carbon dioxide) Krebs solution of the following composition (mM): 130 NaCl, 15 NaHCO3, […], 1.2 NaH2PO4, 1.2 MgSO4, 2.5 CaCl2, and 11.4 glucose. The preparations were equilibrated for one hour before approximately one gram of passive tension was placed on the rings. Angiotensin II concentration-response curves were then recorded (3×10^−10 to 1×10^−5 M). Each concentration of AII was allowed to elicit its maximal contraction, and then AII was washed out repeatedly for 30 minutes before rechallenging with a higher concentration of AII. Aorta rings were exposed to the test antagonist at 10^−5 M for 5 minutes before challenging with AII. Adjacent segments of the same aorta ring were used for all concentration-response curves in the presence or absence of the test antagonist. The effectiveness of the test compound was expressed in terms of pA2 values and were calculated according to H. O. Schild [Br. J. Pharmacol. Chemother., 2,189-206 (1947)]. The PA2 value is the concentration of the antagonist which increases the EC50 value for AII by a factor of two. Each test antagonist was evaluated in aorta rings from two rabbits.

[3] = molecular target: smooth muscle angiotensin II receptor; assay: Assay A: Angiotensin II Binding Activity (125I-angiotensin II displacement, rat uterine membrane preparation); conditions: 50% displacement of specifically bound 125I-AII, rat uterine membranes, 25° C., 60 min
Experimental: Assay A: Angiotensin II Binding Activity
Compounds of the invention were tested for ability to bind to the smooth muscle angiotensin II receptor using a rat uterine membrane preparation. […] Other chemicals were obtained from Sigma Chemical Co. This assay was carried out according to the method of Douglas et al [Endocrinology, 106, 120-124 (1980)]. Rat uterine membranes were prepared from fresh tissue. All procedures were carried out at 4° C. Uteri were stripped of fat and homogenized in phosphate-buffered saline at pH 7.4 containing 5 mM EDTA. The homogenate was centrifuged at 1500×g for 20 min., and the supernatant was recentrifuged at 100,000×g for 60 min. The pellet was resuspended in buffer consisting of 2 mM EDTA and 50 mM Tris-HCl (pH 7.5) to a final protein concentration of 4 mg/ml. Assay tubes were charged with 0.25 ml of a solution containing 5 mM MgCl2, 2 mM EDTA, 0.5% bovine serum albumin, 50 mM Tris-HCl, pH 7.5 and […] (approximately 10^5 cpm) in the absence or in the presence of unlabelled ligand. The reaction was initiated by the addition of membrane protein and the mixture was incubated at 25° C. for 60 min. The incubation was terminated with ice-cold 50 mM Tris-HCl (pH 7.5) and the mixture was filtered to separate membrane-bound labelled peptide from the free ligand. The incubation tube and filter were washed with ice-cold buffer. Filters were assayed for radioactivity in a Micromedic gamma counter. Nonspecific binding was defined as binding in the presence of 10 μM of unlabelled AII. Specific binding was calculated as total binding minus nonspecific binding. […] Binding data were analyzed by a nonlinear least-squares curve fitting program.

[4] = first value of the pair (aorta rings from two rabbits)
[5] = second value of the pair (aorta rings from two rabbits)

| SMILES | pIC50 [3] | Assay C Duration [1] | inhibition in vivo at 3 mg/kg [1] | Kb [2, 4] | Kb [2, 5] |
| --- | --- | --- | --- | --- | --- |
| CCCc1cn(CCC)c(=O)n1Cc1ccc(-c2ccccc2-c2nnn[nH]2)nc1 [Example 2, 1,4-dipropyl-1,3-dihydro-3-[[6-[2-(1H-tetrazol-5-yl)phenyl]-3-pyridinyl]methyl]-2H-imidazol-2-one] | 7.42 | 180 min | 25% | 7.41 nM | 39.8 nM |
| CCCn1cc(CC(C)C)n(Cc2ccc(-c3ccccc3-c3nnn[nH]3)nc2)c1=O [Example 3, 1-propyl-4-isobutyl-1,3-dihydro-3-[[6-[2-(1H-tetrazol-5-yl)phenyl]-3-pyridinyl]methyl]-2H-imidazol-2-one] | 6.11 |  |  | 34.7 nM | 112 nM |
| CCCCn1cc(CC(C)C)n(Cc2ccc(-c3ccccc3-c3nnn[nH]3)nc2)c1=O [Example 4, 1-butyl-4-isobutyl-1,3-dihydro-3-[[6-[2-(1H-tetrazol-5-yl)phenyl]-3-pyridinyl]methyl]-2H-imidazol-2-one] | 6.85 |  |  | 19.1 nM | 81.3 nM |
| CCCCn1cc(CCC(C)C)n(Cc2ccc(-c3ccccc3-c3nnn[nH]3)nc2)c1=O [Example 5, 1-butyl-4-isopentyl-1,3-dihydro-3-[[6-[2-(1H-tetrazol-5-yl)phenyl]-3-pyridinyl]methyl]-2H-imidazol-2-one] | 7.54 |  |  | 2.29 nM | 5.89 nM |
| CCCCn1cc(C2CCCCC2)n(Cc2ccc(-c3ccccc3-c3nnn[nH]3)nc2)c1=O [Example 7, 1-butyl-4-cyclohexyl-1,3-dihydro-3-[[6-[2-(1H-tetrazol-5-yl)phenyl]-3-pyridinyl]methyl]-2H-imidazol-2-one] | 7.09 | 180 min | 10% | 17.8 nM | 17.4 nM |
| CCCCn1cc(CCC2CC2)n(Cc2ccc(-c3ccccc3-c3nnn[nH]3)nc2)c1=O [Example 9, 1-butyl-4-(2-cyclopropylethyl)-1,3-dihydro-3-[[6-[2-(1H-tetrazol-5-yl)phenyl]-3-pyridinyl]methyl]-2H-imidazol-2-one] | 7.96 | 180 min | 10% | 0.537 nM | 1.35 nM |
| CCCCc1cn(C(C)C)c(=O)n1Cc1ccc(-c2ccccc2-c2nnn[nH]2)nc1 [Example 16, 1-isopropyl-4-butyl-1,3-dihydro-3-[[6-[2-(1H-tetrazol-5-yl)phenyl]-3-pyridinyl]methyl]-2H-imidazol-2-one] | 7.70 | >180 min | 45% | 3.8 nM | 1.7 nM |
| CCCCc1cn(C(C)(C)C)c(=O)n1Cc1ccc(-c2ccccc2-c2nnn[nH]2)nc1 [Example 17, 1-tertbutyl-4-butyl-1,3-dihydro-3-[[6-[2-(1H-tetrazol-5-yl)phenyl]-3-pyridinyl]methyl]-2H-imidazol-2-one] | 7.77 | 180 min | 10% | 1.66 nM | 2.34 nM |
| CCCCc1cn(CCC(C)(C)C)c(=O)n1Cc1ccc(-c2ccccc2-c2nnn[nH]2)nc1 [Example 19, 1-(3,3-dimethylbutyl)-4-butyl-1,3-dihydro-3-[[6-[2-(1H-tetrazol-5-yl)phenyl]-3-pyridinyl]methyl]-2H-imidazol-2-one] | 8.04 | >180 min | 50% | 3.72 nM | 4.37 nM |
| CCCCc1cn(C2CCCC2)c(=O)n1Cc1ccc(-c2ccccc2-c2nnn[nH]2)nc1 [Example 23, 1-cyclopentyl-4-butyl-1,3-dihydro-3-[[6-[2-(1H-tetrazol-5-yl)phenyl]-3-pyridinyl]methyl]-2H-imidazol-2-one] | 7.00 |  |  | 0.912 nM | 2.51 nM |
| CCCCc1cn(CCc2ccccc2)c(=O)n1Cc1ccc(-c2ccccc2-c2nnn[nH]2)nc1 [Example 26, 1-(2-phenylethyl)-4-butyl-1,3-dihydro-3-[[6-[2-(1H-tetrazol-5-yl)phenyl]-3-pyridinyl]methyl]-2H-imidazol-2-one] | 8.44 | 180 min | 15% | 4.37 nM | 3.63 nM |

Second part, led by results:

| pIC50 [3] | SMILES | Assay C Duration [1] | inhibition in vivo at 3 mg/kg [1] | Kb [2, 4] | Kb [2, 5] |
| --- | --- | --- | --- | --- | --- |
| 7.29 | CCCCc1cn(C2C3CC4CC(C3)CC2C4)c(=O)n1Cc1ccc(-c2ccccc2-c2nnn[nH]2)nc1 (centres unmarked) [Example 29, 1-(2-adamantyl)-4-butyl-1,3-dihydro-3-[[6-[2-(1H-tetrazol-5-yl)phenyl]-3-pyridinyl]methyl]-2H-imidazol-2-one] |  |  |  |  |
| 7.19 | CCCCc1cn(C23CC4CC(CC(C4)C2)C3)c(=O)n1Cc1ccc(-c2ccccc2-c2nnn[nH]2)nc1 [Example 30, 1-(1-adamantyl)-4-butyl-1,3-dihydro-3-[[6-[2-(1H-tetrazol-5-yl)phenyl]-3-pyridinyl]methyl]-2H-imidazol-2-one] |  |  |  |  |
| 7.35 | CCCCc1cn(-c2ccccc2)c(=O)n1Cc1ccc(-c2ccccc2-c2nnn[nH]2)nc1 [Example 31, 1-phenyl-4-butyl-1,3-dihydro-3-[[6-[2-(1H-tetrazol-5-yl)phenyl]-3-pyridinyl]methyl]-2H-imidazol-2-one] |  |  |  |  |
| 8.03 | CCCCc1cn(-c2ccccc2C)c(=O)n1Cc1ccc(-c2ccccc2-c2nnn[nH]2)nc1 [Example 33, 1-(2-methylphenyl)-4-butyl-1,3-dihydro-3-[[6-[2-(1H-tetrazol-5-yl)phenyl]-3-pyridinyl]methyl]-2H-imidazol-2-one] | >180 min | 65% |  |  |
| 8.05 | CCCCc1cn(-c2ccccc2OC)c(=O)n1Cc1ccc(-c2ccccc2-c2nnn[nH]2)nc1 [Example 34, 1-(2-methoxyphenyl)-4-butyl-1,3-dihydro-3-[[6-[2-(1H-tetrazol-5-yl)phenyl]-3-pyridinyl]methyl]-2H-imidazol-2-one] |  |  |  |  |
| 7.85 | CCCCc1cn(-c2ccccc2C(C)C)c(=O)n1Cc1ccc(-c2ccccc2-c2nnn[nH]2)nc1 [Example 35, 1-(2-isopropylphenyl)-4-butyl-1,3-dihydro-3-[[6-[2-(1H-tetrazol-5-yl)phenyl]-3-pyridinyl]methyl]-2H-imidazol-2-one] |  |  |  |  |
| 8.30 | CCCCc1cn(-c2c(C)cccc2C)c(=O)n1Cc1ccc(-c2ccccc2-c2nnn[nH]2)nc1 [Example 38, 1-(2,6-dimethylphenyl)-4-butyl-1,3-dihydro-3-[[6-[2-(1H-tetrazol-5-yl)phenyl]-3-pyridinyl]methyl]-2H-imidazol-2-one] |  |  |  |  |
